Test results: patent US20220299532A1, “CORRECTING PROTEIN MISFOLDING IN DIABETES” (Sanford Burnham Prebys Medical Discovery Institute, priority 2019, published 2022)
Residues, ends and D or L forms follow the SMILES beside them. *: point of attachment. Cbz = O=C(OCc1ccccc1)*

How the values were obtained:
[1] = system: mouse pancreatic islets; assay: Proinsulin disulfide-linked / HMW complexes in murine islets, SDS-PAGE immunoblot (CCI-17); type: cell-based; details: islets of WT male mice on regular diet, increasing concentrations of DTT in culture
Description: Mouse pancreatic islet isolation: Mice were euthanized by CO2 narcosis as per an approved institutional animal protocol. The pancreas was rapidly excised, minced in ice-cold PBS, and digested in 4 mL of Collagenase P (Roche) 1.5 mg/mL in Hank's Balanced Salt Solution containing calcium and magnesium, in a shaking water bath for 30 min at 37° C. The digestion was terminated in 40 mL ice-cold PBS (—Ca/—Mg) and the digested tissue washed twice in this buffer. The sedimented tissue digest was then overlaid with 3 mL Histopaque-1077 and further overlayed with 6 mL ice cold PBS (—Ca/—Mg) before centrifugation (3000 rpm for 20 min at 10° C. with no brake) and transfer of the midlayer of the Histopaque gradient to a 15 ml tube for two further washes in ice-cold PBS. Finally, the sedimented tissue was transferred to a petri dish in ice-cold RPMI-1640 buffer and islets hand-picked to purity. In experiments involving drug or compound treatment, the islets were finally recovered overnight in RPMI-1640 supplemented with 10% fetal bovine serum (FBS), 10 mM HEPES pH 7.35, 1 mM sodium pyruvate and 0.05 mM beta-mercaptoethanol, in a humidified 5% CO2 incubator at 37° C. For some experiments, islets were snap frozen in liquid nitrogen and stored frozen prior to analysis.
(§1) Lysis of cells or islets for SDS-PAGE and electrotransfer: After removal of media, cells were washed once with ice-cold PBS and lysed in RIPA buffer (10 mM Tris pH 7.4, 150 mM NaCl, 0.1% SDS, 1% NP40, 2 mM EDTA) plus protease inhibitor/phosphatase inhibitor cocktail (Sigma-Aldrich) or directly in Laemmli gel sample buffer. Lysates in RIPA buffer were immediately spun at 10,000 rpm for 10 min at 4° C. and the supernatants analyzed further or stored at −80° C. Islets that had been quick frozen were placed on ice and RIPA buffer containing protease inhibitor cocktail and phosphatase inhibitor was added. Lysis was carried out by gently pipetting or by syringe through a 30G needle. Total protein concentration in the lysate was determined by BCA or Bramhall assay, and 5-10 μg of samples prepared in SDS sample were resolved by SDS-PAGE in 4-12% Bis-Tris NuPAGE gels (Invitrogen) at 200 V for 30 min. Nonreducing gels were incubated in a solution containing 20 mM dithiothreitol (DTT) for 10 min at room temperature prior to electrotransfer.
(§2) Immunoblotting: Transfer membranes were rinsed once in TBST (15 mM Tris, 150 mM NaCl, 0.1% Tween-20), blocked using TST plus 5% BSA for 1 h at room temperature, and then washed four times (5 min each) in TBST. Primary antibody and secondary antibodies were diluted in TBST and each of […] incubations was 1 h at room temperature followed by 4 washes in TBST. On occasion, primary antibodies were incubated overnight at 4° C. Secondary antibodies were all HRP-conjugates. Development of immunoblots used enhanced chemiluminescence (Immobilon, Millipore, or SuperSignal West Pico PLUS, Thermo Fisher Scientific) with images captured using a Fotodyne gel imager.
Islet Isolation: Islets were isolated by collagenase P (Roche) perfusion as described following by histopaque-1077 (Sigma-Aldrich, Inc. St. Louis) gradient purification. Islets were handpicked and studied directly or after overnight culture in RPMI 1640 medium (Corning 10-040-CV) supplemented with 10% FBS, 1% penicillin/streptomycin, 100 μg/m1 primocin, 10mM Hepes, and 1mM sodium pyruvate.
Islet Western Blotting: Isolated islets were lysed in RIPA buffer (10 mM Tris pH 7.4, 150 mM NaCl, 0.1% SDS, 1% NP-40, 2mM EDTA) with protease and phosphatase inhibitors (Fisher Scientific) on ice for 10 min and lysates were collected after centrifugation at 4° C. for 10 min at 12000 g. Samples were prepared in Laemmli sample buffer without (non-reducing) or with (reducing) 5% β-mercaptoethanol. After boiling for 5 min, samples were analyzed by SDS-PAGE (4-12% Bis-Tris gel, (Bio-Rad Laboratories, Inc.)) and transferred to nitrocellulose membranes (Bio-Rad Laboratories, Inc.). […]

[2] = system: murine embryonic fibroblasts (MEFs); assay: Human proinsulin delivered by adenovirus to murine embryonic fibroblasts, non-reducing SDS-PAGE; type: cell-based, mouse; details: MEFs infected with Ad-hProins, increasing concentrations of DTT
Description: Generation and culture of primary mouse embryonic fibroblast (MEF): WT C57BL/6 d14 embryos were isolated under sterile conditions and placed in 100 mm cell culture dish containing PBS. Placental and other maternal tissues were removed and the embryos were washed three times with PBS. Heads and visceral organs were removed. The heads were used for genotyping. Embryos were finely minced with a sterile razor blade and treated with 1 ml of 0.25% trypsin/EDTA (Corning) for 40 min at 37° C. DMEM medium (Corning) supplemented with 10% FBS, 1% penicillin/streptomycin, 100 μg/ml primocin and 1 mM sodium pyruvate was added to quench trypsin activity. Tissue homogenate was subsequently disaggregated by repeated pipetting, and further centrifuged to collect the fibroblast cell pallet. Cells were plated in 100 mm culture dish in DMEM medium at 37° C. in a cell culture incubator under 5% CO2. To prevent mycoplasma, bacterial, and fungal contamination, primary MEFs were cultured in medium containing 100 μg/ml primocin (InvivoGen) and used for experiments prior to passage #5.
To study the impact of PDIA1 in the absence of C peptide processing in a more manipulatable system, the inventors analyzed human proinsulin expression delivered by adenovirus to murine embryonic fibroblasts (MEFs) that were co-infected with WT PDIA1 or PDIA1 with 4 Cys to Ser mutations in the two vicinal catalytic PDI sites. […]

[3] = system: INS-832/13 β-cell line; assay: Detection of myc-tagged two-cysteine proinsulin mutants in INS-832/13 cells, nonreducing SDS-PAGE immunoblot; type: cell-based, rat; details: MG132 10 μg/mL for 7 h
Description: (§3) Cell and islet culture: Rat pancreatic beta cell lines INS1E and INS-832/13 were cultured in RPMI-1640 medium supplemented with 10% FBS, 10 mM HEPES pH 7.35, 1 mM sodium pyruvate, penicillin/streptomycin and 0.05 mM beta-mercaptoethanol. HEK293T human cells lines were cultured in DMEM supplemented with 10% FBS and penicillin/streptomycin.
(§4) Transfection of cells: 293T cells, INS1E cells, and INS-832/13 cells at 70-80% confluency were transiently transfected using Lipofectamine 2000 (ThermoFisher) as per the manufacturer's instructions. A medium change was performed 5 h post-transfection and the cells were lysed at 36 or 48 h.
as §1, with “Islets that had been quick frozen were placed on ice and RIPA buffer containing protease inhibitor cocktail and phosphatase inhibitor was added. Lysis was carried out by gently pipetting or by syringe through a 30G needle.” left out, “Nonreducing gels were incubated in a solution containing 20 mM dithiothreitol (DTT) for 10 min at room temperature prior to electrotransfer.” left out

[4] = system: INS1E cells; assay: Proinsulin disulfide-linked complexes in INS1E cells, nonreducing/reducing SDS-PAGE and immunoblotting (mAb CCI-17); type: cell-based, rat
Description: HEK293T human cells lines were cultured in DMEM supplemented with 10% FBS and penicillin/streptomycin.
as §1, with “Islets that had been quick frozen were placed on ice and RIPA buffer containing protease inhibitor cocktail and phosphatase inhibitor was added.” left out, “Total protein concentration in the lysate was determined by BCA or Bramhall assay, and 5-10 μg of samples prepared in SDS sample were resolved by SDS-PAGE in 4-12% Bis-Tris NuPAGE gels (Invitrogen) at 200 V for 30 min.” left out
The lane was then laid horizontally on top of a 10% SDS-polyacrylamide resolving gel and sealed in place in stacking gel. A single-tooth comb was introduced at one end of the stacking gel to introduce a one-dimensional reduced sample of proinsulin containing cell lysate (which runs as proinsulin monomer). The gel was run at 200 V for 45 mins in Tris-Glycine buffer pH 8.8 with electrotransfer as described above.
as §2

[5] = system: INS1E cells; assay: Intracellular proinsulin distribution in INS1E cells, indirect immunofluorescence; type: cell-based, rat; details: overnight PERK inhibitor, anti-proinsulin GS-9A8 and anti-calnexin
Description: Immunohistochemistry/immunocytochemistry: Pancreatic paraffin sections were de-paraffinized with Citrisolv (Fisher Scientific) for 5 min at room temperature, re-hydrated in a series of 8 min ethanol incubations: 100%, 95%, 70%, and distilled water. Antigen retrieval was carried out using Retrieve-ALL 1 Universal pH 8 (BioLegend) and slides were heated in a microwave, cooled for 30 min at room temperature, and incubated once with PBS for 5 min. Blocking was performed in 150 μL blocking buffer (3% BSA prepared in TBS and 0.2% Triton X-100) per section for 2 h at room temperature. Blocking buffer was removed and 150 μL per section of primary antibody appropriately diluted in TBS plus 3% BSA and 0.2% Tween-20 was incubated overnight at 4° C. The primary antibody was removed and the slide washed twice with TBS/0.1% Tween-20. Then, 150 μL secondary antibody (1:500 dilution, prepared in antibody buffer) per section was incubated for 1 h at room temperature. Slides were washed thrice with TBS/0.1% Tween-20, mounted with a drop of prolong gold anti-fade reagent with DAPI (ThermoFisher) and a cover slip affixed. For immunocytochemistry, INS1E cells were grown in an 8-well Millicell® EZ SLIDE (Millipore-SIGMA). Cells were allowed to reach 60-80% confluency before addition of PERK inhibitor (PERKi) or vehicle. […]

[6] = system: 293T cells; assay: Disulfide-linked complexes of recombinant human proinsulin in 293T cells, nonreducing SDS-PAGE immunoblot (mAb 20G11); type: cell-based; details: overnight PERK inhibitor
Description: as §3, §4
as §1, with “Islets that had been quick frozen were placed on ice and RIPA buffer containing protease inhibitor cocktail and phosphatase inhibitor was added. Lysis was carried out by gently pipetting or by syringe through a 30G needle.” left out, “Nonreducing gels were incubated in a solution containing 20 mM dithiothreitol (DTT) for 10 min at room temperature prior to electrotransfer.” left out

[7] = system: human islets; assay: Proinsulin disulfide-linked complexes in human islets, SDS-PAGE immunoblot (mAb 20G11); type: cell-based; details: overnight PERK inhibitor
Description: Human pancreatic islets: Human islets were obtained either from Prodo Labs, or from the NIDDK-funded Integrated Islet Distribution Program (IIDP; NIH UC4-DK098085) and maintained in a humidified 5% CO2 incubator at 37° C. Human islets were cultured ex vivo for up to 96 h in Prodo PIM(R) islet19 specific tissue culture medium supplemented with 10% FBS and Prodo PIM(G) glutamine/glutathione supplement, plus penicillin/streptomycin.
as §1, with “Nonreducing gels were incubated in a solution containing 20 mM dithiothreitol (DTT) for 10 min at room temperature prior to electrotransfer.” left out

## O[C@H](CS)[C@H](O)CS (racemic) [dithiothreitol]
[1]
  proinsulin monomer and dimer: increasing amounts of the proinsulin monomer and residual disulfide-linked dimer
[2]
  reduced proinsulin: increased the amount of reduced proinsulin

## CC(C)C[C@@H](C=O)NC(=O)[C@H](CC(C)C)NC(=O)[C@H](CC(C)C)NC(=O)OCc1ccccc1 [MG132] (Cbz-Leu-Leu-Leu-aldehyde)
[3]
  detection of myc-tagged proinsulin mutants (keep-B7/A7, keep-A6/A11, keep-B19/A20): myc-tagged proinsulin monomers were detected in all cases

## Cc1cccc(CC(=O)N2CCc3c2ccc(-c2cn(C)c4ncnc(N)c24)c3F)n1 [PERK inhibitor, GSK2656157]
[4]; INS1E cells treated with PERK inhibitor, 2D nonreducing/reducing SDS-PAGE
  disulfide-linked proinsulin complexes as share of all recovered proinsulin: 87%
[4]; INS1E cells, PERK inhibitor for last 0, 5, 10 or 20 h
  intracellular proinsulin in disulfide-linked complexes with increasing time of exposure: the majority of intracellular proinsulin accumulated in disulfide-linked complexes
[4]; INS1E cells, PERK inhibitor overnight (GSK2656157, 2 μM) vs vehicle DMSO
  intracellular accumulation of proinsulin: dramatically increased
[4]; INS1E cells, PERK inhibitor up to 20 h
  insulin content: decreased insulin content
[4]; INS1E cells, PERK inhibitor up to 20 h, media
  proinsulin secretion: decreased proinsulin secretion
[4]; INS1E cells, overnight PERK inhibitor, nonreducing SDS-PAGE of media
  secretion of proinsulin to the medium: not increased
[5]
  intracellular proinsulin distribution: shifted its distribution to the classic impacted-ER phenotype
[6]
  disulfide-linked proinsulin dimers and higher-order complexes of recombinant human proinsulin: accumulated to a dramatically higher level
[7]; nonreducing SDS-PAGE
  higher order disulfide-linked proinsulin complexes: further increase in higher order disulfide-linked complexes
[7]; reducing SDS-PAGE
  total islet proinsulin: increase in total islet proinsulin
